Article PMC6199309, “A therapeutic approach to pantothenate kinase associated neurodegeneration” (Nature Communications, 2018)

Tests used:
[1] = target: T1, ABL1(M351T)-phosphorylated (Homo sapiens, UniProt P00519, M351T); assay: KINOMEscan; format: binding; conditions: read-out: %Ctrl @ 10000nM
T1 construct: purchased DiscoverX KINOMEscan

[2] = target: T2, ABL1(T315I)-nonphosphorylated (Homo sapiens, UniProt P00519, T315I); assay: KINOMEscan; format: binding; conditions: read-out: %Ctrl @ 10000nM
T2 construct: purchased DiscoverX KINOMEscan

ADCK4 = target: T3, ADCK4 (Homo sapiens, UniProt Q96D53); assay: KINOMEscan; format: binding; conditions: read-out: %Ctrl @ 10000nM
T3 construct: purchased DiscoverX KINOMEscan

AKT3 = target: T4, AKT3 (Homo sapiens, UniProt Q9Y243); assay: KINOMEscan; format: binding; conditions: read-out: %Ctrl @ 10000nM
T4 construct: purchased DiscoverX KINOMEscan

CDK4 = target: T5, CDK4 (Homo sapiens, UniProt P11802); assay: KINOMEscan; format: binding; conditions: read-out: %Ctrl @ 10000nM
T5 construct: purchased DiscoverX KINOMEscan

CDK4-cyclinD3 = target: T6, CDK4-cyclinD3 (Homo sapiens, UniProt P11802); assay: KINOMEscan; format: binding; conditions: read-out: %Ctrl @ 10000nM
T6 construct: purchased DiscoverX KINOMEscan

CDKL5 = target: T7, CDKL5 (Homo sapiens, UniProt O76039); assay: KINOMEscan; format: binding; conditions: read-out: %Ctrl @ 10000nM
T7 construct: purchased DiscoverX KINOMEscan

CLK3 = target: T8, CLK3 (Homo sapiens, UniProt P49761); assay: KINOMEscan; format: binding; conditions: read-out: %Ctrl @ 10000nM
T8 construct: purchased DiscoverX KINOMEscan

DYRK1A = target: T9, DYRK1A (Homo sapiens, UniProt Q13627); assay: KINOMEscan; format: binding; conditions: read-out: %Ctrl @ 10000nM
T9 construct: purchased DiscoverX KINOMEscan

EGFR(E746-A750del) = target: T10, EGFR(E746-A750del) (Homo sapiens, UniProt P00533, DEL746-750); assay: KINOMEscan; format: binding; conditions: read-out: %Ctrl @ 10000nM
T10 construct: purchased DiscoverX KINOMEscan

EPHA3 = target: T11, EPHA3 (Homo sapiens, UniProt P29320); assay: KINOMEscan; format: binding; conditions: read-out: %Ctrl @ 10000nM
T11 construct: purchased DiscoverX KINOMEscan

ERBB4 = target: T12, ERBB4 (Homo sapiens, UniProt Q15303); assay: KINOMEscan; format: binding; conditions: read-out: %Ctrl @ 10000nM
T12 construct: purchased DiscoverX KINOMEscan

ERK8 = target: T13, ERK8 (Homo sapiens, UniProt Q8TD08); assay: KINOMEscan; format: binding; conditions: read-out: %Ctrl @ 10000nM
T13 construct: purchased DiscoverX KINOMEscan

GAK = target: T14, GAK (Homo sapiens, UniProt O14976); assay: KINOMEscan; format: binding; conditions: read-out: %Ctrl @ 10000nM
T14 construct: purchased DiscoverX KINOMEscan

GSK3B = target: T15, GSK3B (Homo sapiens, UniProt P49841); assay: KINOMEscan; format: binding; conditions: read-out: %Ctrl @ 10000nM
T15 construct: purchased DiscoverX KINOMEscan

HIPK1 = target: T16, HIPK1 (Homo sapiens, UniProt Q86Z02); assay: KINOMEscan; format: binding; conditions: read-out: %Ctrl @ 10000nM
T16 construct: purchased DiscoverX KINOMEscan

INSRR = target: T17, INSRR (Homo sapiens, UniProt P14616); assay: KINOMEscan; format: binding; conditions: read-out: %Ctrl @ 10000nM
T17 construct: purchased DiscoverX KINOMEscan

KIT = target: T18, KIT (Homo sapiens, UniProt P10721); assay: KINOMEscan; format: binding; conditions: read-out: %Ctrl @ 10000nM
T18 construct: purchased DiscoverX KINOMEscan

KIT(V559D) = target: T19, KIT(V559D) (Homo sapiens, UniProt P10721, V559D); assay: KINOMEscan; format: binding; conditions: read-out: %Ctrl @ 10000nM
T19 construct: purchased DiscoverX KINOMEscan

LOK = target: T20, LOK (Homo sapiens, UniProt O94804); assay: KINOMEscan; format: binding; conditions: read-out: %Ctrl @ 10000nM
T20 construct: purchased DiscoverX KINOMEscan

MEK1 = target: T21, MEK1 (Homo sapiens, UniProt Q02750); assay: KINOMEscan; format: binding; conditions: read-out: %Ctrl @ 10000nM
T21 construct: purchased DiscoverX KINOMEscan

NLK = target: T22, NLK (Homo sapiens, UniProt Q9UBE8); assay: KINOMEscan; format: binding; conditions: read-out: %Ctrl @ 10000nM
T22 construct: purchased DiscoverX KINOMEscan

PDGFRA = target: T23, PDGFRA (Homo sapiens, UniProt P16234); assay: KINOMEscan; format: binding; conditions: read-out: %Ctrl @ 10000nM
T23 construct: purchased DiscoverX KINOMEscan

PIK3CA = target: T24, PIK3CA (Homo sapiens, UniProt P42336); assay: KINOMEscan; format: binding; conditions: read-out: %Ctrl @ 10000nM
T24 construct: purchased DiscoverX KINOMEscan

PIK3CA(E542K) = target: T25, PIK3CA(E542K) (Homo sapiens, UniProt P42336, E542K); assay: KINOMEscan; format: binding; conditions: read-out: %Ctrl @ 10000nM
T25 construct: purchased DiscoverX KINOMEscan

PIK3CA(Q546K) = target: T26, PIK3CA(Q546K) (Homo sapiens, UniProt P42336, Q546K); assay: KINOMEscan; format: binding; conditions: read-out: %Ctrl @ 10000nM
T26 construct: purchased DiscoverX KINOMEscan

PIK3CD = target: T27, PIK3CD (Homo sapiens, UniProt O00329); assay: KINOMEscan; format: binding; conditions: read-out: %Ctrl @ 10000nM
T27 construct: purchased DiscoverX KINOMEscan

PKMYT1 = target: T28, PKMYT1 (Homo sapiens, UniProt Q99640); assay: KINOMEscan; format: binding; conditions: read-out: %Ctrl @ 10000nM
T28 construct: purchased DiscoverX KINOMEscan

PLK3 = target: T29, PLK3 (Homo sapiens, UniProt Q9H4B4); assay: KINOMEscan; format: binding; conditions: read-out: %Ctrl @ 10000nM
T29 construct: purchased DiscoverX KINOMEscan

PLK4 = target: T30, PLK4 (Homo sapiens, UniProt O00444); assay: KINOMEscan; format: binding; conditions: read-out: %Ctrl @ 10000nM
T30 construct: purchased DiscoverX KINOMEscan

PYK2 = target: T31, PYK2 (Homo sapiens, UniProt Q14289); assay: KINOMEscan; format: binding; conditions: read-out: %Ctrl @ 10000nM
T31 construct: purchased DiscoverX KINOMEscan

QSK = target: T32, QSK (Homo sapiens, UniProt Q9Y2K2); assay: KINOMEscan; format: binding; conditions: read-out: %Ctrl @ 10000nM
T32 construct: purchased DiscoverX KINOMEscan

RIOK3 = target: T33, RIOK3 (Homo sapiens, UniProt O14730); assay: KINOMEscan; format: binding; conditions: read-out: %Ctrl @ 10000nM
T33 construct: purchased DiscoverX KINOMEscan

ROS1 = target: T34, ROS1 (Homo sapiens, UniProt P08922); assay: KINOMEscan; format: binding; conditions: read-out: %Ctrl @ 10000nM
T34 construct: purchased DiscoverX KINOMEscan

[3] = target: T35, RSK2(Kin.Dom.1-N-terminal) (Homo sapiens, UniProt P51812); assay: KINOMEscan; format: binding; conditions: read-out: %Ctrl @ 10000nM
T35 construct: RSK2(Kin.Dom.1-N-terminal); purchased DiscoverX KINOMEscan

STK36 = target: T36, STK36 (Homo sapiens, UniProt Q9NRP7); assay: KINOMEscan; format: binding; conditions: read-out: %Ctrl @ 10000nM
T36 construct: purchased DiscoverX KINOMEscan

TYRO3 = target: T37, TYRO3 (Homo sapiens, UniProt Q06418); assay: KINOMEscan; format: binding; conditions: read-out: %Ctrl @ 10000nM
T37 construct: DNA label for qPCR (T7 phage fusion or DNA tag); purchased DiscoverX scanMAX; host or cells: E. coli BL21-derived (T7 phage) or HEK-293

WEE1 = target: T38, WEE1 (Homo sapiens, UniProt P30291); assay: KINOMEscan; format: binding; conditions: read-out: %Ctrl @ 10000nM
T38 construct: DNA label for qPCR (T7 phage fusion or DNA tag); purchased DiscoverX scanMAX; host or cells: E. coli BL21-derived (T7 phage) or HEK-293

WNK1 = target: T39, WNK1 (Homo sapiens, UniProt Q9H4A3); assay: KINOMEscan; format: binding; conditions: read-out: %Ctrl @ 10000nM
T39 construct: DNA label for qPCR (T7 phage fusion or DNA tag); purchased DiscoverX scanMAX; host or cells: E. coli BL21-derived (T7 phage) or HEK-293

WNK2 = target: T40, WNK2 (Homo sapiens, UniProt Q9Y3S1); assay: KINOMEscan; format: binding; conditions: read-out: %Ctrl @ 10000nM
T40 construct: DNA label for qPCR (T7 phage fusion or DNA tag); purchased DiscoverX scanMAX; host or cells: E. coli BL21-derived (T7 phage) or HEK-293

HEK293T cells = assay: Intracellular CoA levels in transfected HEK293T cells; format: cell-based, human; conditions: 10 μM, 24 h
Method: Chloroform 1.5 ml, 1.2 ml water and 30 pmol of [^13C2]acetyl-CoA (Sigma) was added, and centrifuged at 2000×g for 10 min. The top layer was loaded on a 2-(2-pyridyl) ethyl solid phase extraction column which was equilibrated with 1 ml 50% methanol/2% acetic acid. The column was washed twice with 1 ml 50% methanol/2% acetic acid and 1 ml water. […] Samples were resuspended in 90% methanol containing 15 mM ammonium hydroxide.

PAMPA = conditions: PAMPA

T8 sequence (P49761 whole entry): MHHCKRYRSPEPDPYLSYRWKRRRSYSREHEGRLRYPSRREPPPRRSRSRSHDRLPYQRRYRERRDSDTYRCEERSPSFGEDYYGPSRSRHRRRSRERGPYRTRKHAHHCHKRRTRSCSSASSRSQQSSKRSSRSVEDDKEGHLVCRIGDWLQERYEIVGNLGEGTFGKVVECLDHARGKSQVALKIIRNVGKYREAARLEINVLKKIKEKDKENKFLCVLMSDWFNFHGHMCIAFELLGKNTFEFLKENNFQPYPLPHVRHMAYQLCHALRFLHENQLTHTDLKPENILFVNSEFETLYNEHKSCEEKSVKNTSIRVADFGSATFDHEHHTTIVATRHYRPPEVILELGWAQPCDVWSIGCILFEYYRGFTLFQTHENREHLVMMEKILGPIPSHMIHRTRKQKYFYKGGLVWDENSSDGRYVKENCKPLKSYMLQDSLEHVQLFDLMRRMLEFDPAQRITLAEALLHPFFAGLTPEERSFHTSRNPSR
T24 sequence (P42336 whole entry): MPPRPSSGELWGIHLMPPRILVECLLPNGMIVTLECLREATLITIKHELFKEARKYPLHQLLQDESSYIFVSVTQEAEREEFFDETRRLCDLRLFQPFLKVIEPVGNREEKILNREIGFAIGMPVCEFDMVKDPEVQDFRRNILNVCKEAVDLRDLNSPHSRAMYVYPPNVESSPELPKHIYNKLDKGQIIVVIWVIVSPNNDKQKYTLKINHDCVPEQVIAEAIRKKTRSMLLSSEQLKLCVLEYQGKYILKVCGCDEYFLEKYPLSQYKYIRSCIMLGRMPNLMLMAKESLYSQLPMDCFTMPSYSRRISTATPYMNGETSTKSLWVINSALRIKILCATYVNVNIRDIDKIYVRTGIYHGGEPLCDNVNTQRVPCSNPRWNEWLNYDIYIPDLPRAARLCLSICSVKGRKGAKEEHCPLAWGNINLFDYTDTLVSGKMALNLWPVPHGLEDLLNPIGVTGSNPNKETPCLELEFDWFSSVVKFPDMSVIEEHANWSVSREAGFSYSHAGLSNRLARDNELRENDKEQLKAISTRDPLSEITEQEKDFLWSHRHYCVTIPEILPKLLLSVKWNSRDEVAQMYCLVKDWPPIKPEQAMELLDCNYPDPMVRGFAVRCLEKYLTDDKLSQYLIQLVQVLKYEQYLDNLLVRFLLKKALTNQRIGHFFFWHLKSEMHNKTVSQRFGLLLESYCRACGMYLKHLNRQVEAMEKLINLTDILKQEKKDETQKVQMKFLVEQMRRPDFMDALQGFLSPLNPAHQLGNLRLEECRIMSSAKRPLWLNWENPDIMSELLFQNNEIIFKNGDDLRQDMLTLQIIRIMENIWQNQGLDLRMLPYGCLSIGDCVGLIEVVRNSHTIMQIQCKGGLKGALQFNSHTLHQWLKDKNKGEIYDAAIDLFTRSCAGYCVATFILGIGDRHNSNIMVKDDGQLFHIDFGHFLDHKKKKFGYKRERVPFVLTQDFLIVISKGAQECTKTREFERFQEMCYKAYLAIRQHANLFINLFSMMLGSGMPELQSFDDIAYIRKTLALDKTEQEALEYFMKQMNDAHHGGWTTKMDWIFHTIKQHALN
T20 sequence (O94804 whole entry): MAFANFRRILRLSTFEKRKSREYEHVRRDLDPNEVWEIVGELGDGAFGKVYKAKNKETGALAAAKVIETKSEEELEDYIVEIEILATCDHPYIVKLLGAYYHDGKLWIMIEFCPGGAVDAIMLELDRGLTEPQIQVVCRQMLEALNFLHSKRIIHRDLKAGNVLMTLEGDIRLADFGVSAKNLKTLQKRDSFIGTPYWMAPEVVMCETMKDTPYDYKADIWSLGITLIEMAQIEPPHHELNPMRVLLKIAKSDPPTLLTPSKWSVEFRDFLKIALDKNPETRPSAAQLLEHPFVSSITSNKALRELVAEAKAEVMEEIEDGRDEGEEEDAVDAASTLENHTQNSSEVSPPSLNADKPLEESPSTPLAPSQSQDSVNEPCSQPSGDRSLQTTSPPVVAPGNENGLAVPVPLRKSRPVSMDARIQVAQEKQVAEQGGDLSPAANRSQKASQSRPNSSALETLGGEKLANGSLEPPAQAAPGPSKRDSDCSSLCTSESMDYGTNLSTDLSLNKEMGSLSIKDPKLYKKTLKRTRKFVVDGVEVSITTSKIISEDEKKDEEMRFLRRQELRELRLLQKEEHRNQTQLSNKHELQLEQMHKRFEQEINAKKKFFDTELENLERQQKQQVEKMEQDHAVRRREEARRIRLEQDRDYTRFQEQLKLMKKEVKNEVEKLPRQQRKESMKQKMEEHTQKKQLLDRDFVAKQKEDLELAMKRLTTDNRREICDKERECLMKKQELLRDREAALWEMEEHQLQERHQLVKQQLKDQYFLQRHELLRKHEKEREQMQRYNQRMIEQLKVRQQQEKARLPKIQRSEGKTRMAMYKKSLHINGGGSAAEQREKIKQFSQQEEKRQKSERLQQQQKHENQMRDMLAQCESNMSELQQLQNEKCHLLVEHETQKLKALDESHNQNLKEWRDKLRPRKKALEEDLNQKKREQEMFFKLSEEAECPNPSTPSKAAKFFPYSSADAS
T39 sequence (Q9H4A3 whole entry, the tested form may be a part): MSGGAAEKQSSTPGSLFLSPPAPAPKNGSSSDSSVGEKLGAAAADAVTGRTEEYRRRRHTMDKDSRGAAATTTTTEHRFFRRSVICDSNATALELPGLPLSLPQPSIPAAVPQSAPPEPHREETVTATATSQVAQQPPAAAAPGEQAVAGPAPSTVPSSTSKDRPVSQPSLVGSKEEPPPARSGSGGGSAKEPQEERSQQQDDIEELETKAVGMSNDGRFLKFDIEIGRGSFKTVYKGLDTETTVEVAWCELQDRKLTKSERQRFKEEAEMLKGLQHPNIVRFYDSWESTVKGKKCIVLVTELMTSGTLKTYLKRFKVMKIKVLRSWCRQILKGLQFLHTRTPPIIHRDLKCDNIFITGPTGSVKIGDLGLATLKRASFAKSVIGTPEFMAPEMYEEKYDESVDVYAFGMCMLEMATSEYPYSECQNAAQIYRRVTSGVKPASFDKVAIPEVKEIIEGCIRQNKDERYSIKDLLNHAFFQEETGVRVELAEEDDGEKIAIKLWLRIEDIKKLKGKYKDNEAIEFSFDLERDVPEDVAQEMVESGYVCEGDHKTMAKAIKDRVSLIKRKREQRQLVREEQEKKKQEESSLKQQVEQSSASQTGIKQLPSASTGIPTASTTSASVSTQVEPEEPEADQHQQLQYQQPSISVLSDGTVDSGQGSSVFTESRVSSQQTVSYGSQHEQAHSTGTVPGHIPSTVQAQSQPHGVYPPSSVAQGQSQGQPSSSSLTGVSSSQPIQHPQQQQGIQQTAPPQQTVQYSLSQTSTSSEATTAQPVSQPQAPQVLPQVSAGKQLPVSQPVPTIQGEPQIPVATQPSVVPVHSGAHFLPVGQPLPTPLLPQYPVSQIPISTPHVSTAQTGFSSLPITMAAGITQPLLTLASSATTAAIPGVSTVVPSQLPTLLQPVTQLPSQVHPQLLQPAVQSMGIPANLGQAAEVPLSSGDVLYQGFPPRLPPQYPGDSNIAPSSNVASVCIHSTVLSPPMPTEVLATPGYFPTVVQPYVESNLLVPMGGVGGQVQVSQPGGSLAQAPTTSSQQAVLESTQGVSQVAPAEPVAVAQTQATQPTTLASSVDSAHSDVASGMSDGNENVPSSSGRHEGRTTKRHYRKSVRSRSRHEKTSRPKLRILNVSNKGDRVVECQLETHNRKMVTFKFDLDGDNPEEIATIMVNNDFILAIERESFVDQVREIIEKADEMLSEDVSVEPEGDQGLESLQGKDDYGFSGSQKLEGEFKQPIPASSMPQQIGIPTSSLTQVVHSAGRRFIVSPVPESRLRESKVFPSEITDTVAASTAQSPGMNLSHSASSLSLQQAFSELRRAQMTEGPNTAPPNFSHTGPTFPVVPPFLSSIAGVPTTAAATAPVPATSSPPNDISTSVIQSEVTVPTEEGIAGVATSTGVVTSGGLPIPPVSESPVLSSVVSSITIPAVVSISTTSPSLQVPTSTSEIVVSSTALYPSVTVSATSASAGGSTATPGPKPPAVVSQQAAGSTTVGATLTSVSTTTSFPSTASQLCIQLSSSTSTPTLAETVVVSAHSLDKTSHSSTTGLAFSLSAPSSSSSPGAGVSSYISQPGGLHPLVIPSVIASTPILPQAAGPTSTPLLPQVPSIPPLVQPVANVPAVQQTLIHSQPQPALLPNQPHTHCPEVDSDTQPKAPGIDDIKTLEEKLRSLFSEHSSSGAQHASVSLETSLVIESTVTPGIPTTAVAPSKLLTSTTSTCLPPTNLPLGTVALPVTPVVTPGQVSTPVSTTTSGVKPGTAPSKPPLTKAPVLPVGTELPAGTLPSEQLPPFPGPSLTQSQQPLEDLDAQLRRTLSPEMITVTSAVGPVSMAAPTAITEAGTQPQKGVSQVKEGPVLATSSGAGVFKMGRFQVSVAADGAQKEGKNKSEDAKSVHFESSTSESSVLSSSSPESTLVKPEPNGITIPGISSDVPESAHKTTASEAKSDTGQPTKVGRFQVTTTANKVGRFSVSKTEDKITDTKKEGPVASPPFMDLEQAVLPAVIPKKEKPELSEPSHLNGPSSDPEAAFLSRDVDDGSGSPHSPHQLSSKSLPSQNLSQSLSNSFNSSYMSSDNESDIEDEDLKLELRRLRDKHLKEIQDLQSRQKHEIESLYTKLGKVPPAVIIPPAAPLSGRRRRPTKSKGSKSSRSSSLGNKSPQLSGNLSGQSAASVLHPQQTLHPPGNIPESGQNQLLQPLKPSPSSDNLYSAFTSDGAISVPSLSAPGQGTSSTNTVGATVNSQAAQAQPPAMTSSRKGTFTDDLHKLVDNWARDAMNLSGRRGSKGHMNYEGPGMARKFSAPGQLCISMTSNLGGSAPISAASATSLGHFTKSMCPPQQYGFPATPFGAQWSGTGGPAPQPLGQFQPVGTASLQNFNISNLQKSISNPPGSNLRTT
T25 sequence (P42336 whole entry E542K): as the sequence (P42336 whole entry) above, with E542K counted along it
T26 sequence (P42336 whole entry Q546K): as the sequence (P42336 whole entry) above, with Q546K counted along it

CC(C)c1ccc(CC(=O)N2CCN(c3ccc(C#N)nn3)CC2)cc1 [PZ-2891, 6-(4-(2-(4-isopropylphenyl)acetyl)piperazin-1-yl)pyridazine-3-carbonitrile]
remaining binding at 10 µM [1]: 96% | remaining binding at 10 µM [2]: 63% | remaining binding at 10 µM (ADCK4): 92% | remaining binding at 10 µM (AKT3): 82% | remaining binding at 10 µM (CDK4): 99% | remaining binding at 10 µM (CDK4-cyclinD3): 71% | remaining binding at 10 µM (CDKL5): 67% | remaining binding at 10 µM (CLK3): 93% | remaining binding at 10 µM (DYRK1A): 71% | remaining binding at 10 µM (EGFR(E746-A750del)): 100% | remaining binding at 10 µM (EPHA3): 65% | remaining binding at 10 µM (ERBB4): 100% | remaining binding at 10 µM (ERK8): 81% | remaining binding at 10 µM (GAK): 93% | remaining binding at 10 µM (GSK3B): 74% | remaining binding at 10 µM (HIPK1): 61% | remaining binding at 10 µM (INSRR): 82% | remaining binding at 10 µM (KIT): 75% | remaining binding at 10 µM (KIT(V559D)): 81% | remaining binding at 10 µM (LOK): 86% | remaining binding at 10 µM (MEK1): 76% | remaining binding at 10 µM (NLK): 94% | remaining binding at 10 µM (PDGFRA): 70% | remaining binding at 10 µM (PIK3CA): 95% | remaining binding at 10 µM (PIK3CA(E542K)): 64% | remaining binding at 10 µM (PIK3CA(Q546K)): 70% | remaining binding at 10 µM (PIK3CD): 89% | remaining binding at 10 µM (PKMYT1): 100% | remaining binding at 10 µM (PLK3): 78% | remaining binding at 10 µM (PLK4): 88% | remaining binding at 10 µM (PYK2): 90% | remaining binding at 10 µM (QSK): 82% | remaining binding at 10 µM (RIOK3): 100% | remaining binding at 10 µM (ROS1): 81% | remaining binding at 10 µM [3]: 80% | remaining binding at 10 µM (STK36): 84% | remaining binding at 10 µM (TYRO3): 100% | remaining binding at 10 µM (WEE1): 92% | remaining binding at 10 µM (WNK1): 100% | remaining binding at 10 µM (WNK2): 87% | intracellular CoA, control (empty vector) HEK293T cells (HEK293T cells): significantly increased the levels of intracellular CoA | PAMPA; Avg Pe (PAMPA): 413 10-6 cm/s
